Experimental data reported in PubChem BioAssay AID330 (DTP/NCI, 2004).
“And” between values parts separate entries of the source, which are not always exact repeats. Equal values may be shown once. Inconclusive results and toxic doses are left out.

Tested on: P388 leukemia ip, CD2F1 mice, survival T/C
Experiment: NCI In Vivo Anticancer Drug Screen. Data for tumor model P388 Leukemia (intraperitoneal) in CD2F1 (CDF1) mice
Details: endpoint: median survival time, higher = longer survival
Outline: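 Mice carrying the transplanted tumor received test compound or vehicle. Survival was recorded in each group, and the value is the treated-group measurement divided by that of the vehicle-treated control group.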

[1] = dose: 50.0 mg/kg/injection, schedule: Q01DX005 (ip), vehicle: saline with Tween-80
[2] = dose: 100.0 mg/kg/injection, schedule: Q01DX005 (ip), vehicle: saline with Tween-80
[3] = dose: 200.0 mg/kg/injection, schedule: Q01DX005 (ip), vehicle: saline with Tween-80
[4] = dose: 12.5 mg/kg/injection, schedule: Q01DX009 (ip), vehicle: saline
[5] = dose: 50.0 mg/kg/injection, schedule: Q01DX009 (ip), vehicle: saline
[6] = dose: 50.0 mg/kg/injection, schedule: Q01DX009 (ip), vehicle: Klucel (hydroxypropylcellulose) (HPC)
[7] = dose: 100.0 mg/kg/injection, schedule: Q01DX009 (ip), vehicle: Klucel (hydroxypropylcellulose) (HPC)
[8] = dose: 200.0 mg/kg/injection, schedule: Q01DX009 (ip), vehicle: Klucel (hydroxypropylcellulose) (HPC)
[9] = dose: 100.0 mg/kg/injection, schedule: Q01DX009 (ip), vehicle: saline
[10] = dose: 200.0 mg/kg/injection, schedule: Q01DX009 (ip), vehicle: saline
[11] = dose: 400.0 mg/kg/injection, schedule: Q01DX009 (ip), vehicle: saline
[12] = dose: 50.0 mg/kg/injection, schedule: Q01DX009 (ip), vehicle: saline with Tween-80
[13] = dose: 100.0 mg/kg/injection, schedule: Q01DX009 (ip), vehicle: saline with Tween-80
[14] = dose: 200.0 mg/kg/injection, schedule: Q01DX009 (ip), vehicle: saline with Tween-80
[15] = dose: 25.0 mg/kg/injection, schedule: Q01DX009 (ip), vehicle: Klucel (hydroxypropylcellulose) (HPC)

Compound: FC(F)(F)/C([S-])=C(/[S-])C(F)(F)F.FC(F)(F)/C([S-])=C(/[S-])C(F)(F)F.FC(F)(F)/C([S-])=C(/[S-])C(F)(F)F.FC(F)(F)/C([S-])=C(/[S-])C(F)(F)F.[Co+3].[Co+3]
- T/C (dose: 33.0 mg/kg/injection, schedule: Q04DX003 (ip), vehicle: other): 107 % of control
- T/C (dose: 50.0 mg/kg/injection, schedule: Q04DX003 (ip), vehicle: other): 100 % of control

Compound: CCCCCN(CCCCC)CC(O)CN1CCCc2ccccc21 (stereo not given)
- T/C [1]: 102 % of control
- T/C [2]: 111 % of control
- T/C [3]: 112 % of control

Compound: CCOCCOCCOC12C(=O)C(Cl)=C(Cl)C(=O)C13C1CC2C(Cl)C13 (stereo not given)
- T/C [4]: 98 % of control
- T/C (dose: 25.0 mg/kg/injection, schedule: Q01DX009 (ip), vehicle: saline): 105 % of control
- T/C [5]: 105 % of control and 106 % of control

Compound: COc1ccc(C2CCC[C@H](CCc3ccc(O)cc3)O2)cc1 (stereo not given in full)
- T/C [1]: 97 % of control
- T/C [2]: 114 % of control
- T/C [3]: 109 % of control

Compound: O=[N+]([O-])c1ccc(S(=O)(=O)OI(O)c2ccccc2)cc1
- T/C (dose: 25.0 mg/kg/injection, schedule: Q01DX009 (ip), vehicle: water): 104 % of control and 105 % of control
- T/C (dose: 50.0 mg/kg/injection, schedule: Q01DX009 (ip), vehicle: water): 98 % of control and 120 % of control and 96 % of control
- T/C (dose: 100.0 mg/kg/injection, schedule: Q01DX009 (ip), vehicle: water): 100 % of control and 101 % of control and 91 % of control

Compound: O=c1c(O)c(-c2ccc(O)c(O)c2)oc2cc(O)cc(O)c12
- T/C (dose: 12.5 mg/kg/injection, schedule: Q03HX008 (ip), vehicle: saline with Tween-80): 95 % of control
- T/C (dose: 25.0 mg/kg/injection, schedule: Q03HX008 (ip), vehicle: saline with Tween-80): 91 % of control
- T/C (dose: 40.0 mg/kg/injection, schedule: Q01DX009 (ip), vehicle: saline with Tween-80): 100 % of control
- T/C (dose: 50.0 mg/kg/injection, schedule: Q03HX008 (ip), vehicle: saline with Tween-80): 93 % of control
- T/C (dose: 80.0 mg/kg/injection, schedule: Q01DX009 (ip), vehicle: saline with Tween-80): 100 % of control
- T/C (dose: 100.0 mg/kg/injection, schedule: Q01DX001 (ip), vehicle: saline with Tween-80): 108 % of control
- T/C (dose: 100.0 mg/kg/injection, schedule: Q03HX008 (ip), vehicle: saline with Tween-80): 99 % of control
- T/C (dose: 100.0 mg/kg/injection, schedule: Q04DX003 (ip), vehicle: saline with Tween-80): 95 % of control
- T/C (dose: 200.0 mg/kg/injection, schedule: Q01DX001 (ip), vehicle: saline with Tween-80): 98 % of control
- T/C (dose: 200.0 mg/kg/injection, schedule: Q03HX008 (ip), vehicle: saline with Tween-80): 103 % of control
- T/C (dose: 200.0 mg/kg/injection, schedule: Q04DX003 (ip), vehicle: saline with Tween-80): 109 % of control
- T/C (dose: 400.0 mg/kg/injection, schedule: Q01DX001 (ip), vehicle: saline with Tween-80): 104 % of control
- T/C (dose: 400.0 mg/kg/injection, schedule: Q04DX003 (ip), vehicle: saline with Tween-80): 104 % of control
- T/C (dose: 800.0 mg/kg/injection, schedule: Q01DX001 (ip), vehicle: saline with Tween-80): 108 % of control

Compound: CSC(=Nc1cccc(C)c1)NC#N
- T/C [6]: 103 % of control
- T/C [7]: 106 % of control
- T/C [8]: 105 % of control

Compound: CCOC(=O)[C]1([Hg][CH3])N=NC(C(=O)OC)=C1C(=O)OC (stereo not given)
- T/C (dose: 1.56 mg/kg/injection, schedule: Q01DX009 (ip), vehicle: saline): 90 % of control
- T/C (dose: 3.12 mg/kg/injection, schedule: Q01DX009 (ip), vehicle: saline): 93 % of control
- T/C (dose: 6.25 mg/kg/injection, schedule: Q01DX009 (ip), vehicle: saline): 90 % of control
- T/C [4]: 93 % of control

Compound: CC(=O)OC1CCC(C2CCCCC2)CC1 (stereo not given)
- T/C [9]: 102 % of control
- T/C [10]: 97 % of control
- T/C [11]: 101 % of control

Compound: Cc1ccccc1NC(=O)C(=O)C(C#N)c1ccc(Cl)cc1Cl (stereo not given)
- T/C [1]: 100 % of control
- T/C [2]: 100 % of control
- T/C [3]: 98 % of control

Compound: Clc1ccc(OCSCOc2ccc(Cl)cc2Cl)c(Cl)c1
- T/C [6]: 106 % of control
- T/C [7]: 99 % of control
- T/C [8]: 101 % of control

Compound: CCOC(=O)c1cc([N+](=O)[O-])c(C)n1C
- T/C [12]: 98 % of control
- T/C [13]: 102 % of control
- T/C [14]: 96 % of control

Compound: CCCCCCCCCCCCN1CCS(=O)(=O)CC1
- T/C [15]: 112 % of control
- T/C [6]: 95 % of control
- T/C [7]: 118 % of control
- T/C [8]: 101 % of control

Compound: CN(C)c1ccc(C(=O)C(O)c2ccccc2Cl)cc1 (stereo not given)
- T/C (dose: 25.0 mg/kg/injection, schedule: Q01DX009 (ip), vehicle: saline with Tween-80): 104 % of control
- T/C [12]: 96 % of control
- T/C [13]: 96 % of control
- T/C [14]: 98 % of control

Compound: CCc1nc(N)nc(N)c1-c1ccc(N(C)C)c(N=[N+]=[N-])c1
- T/C (dose: 15.0 mg/kg/injection, schedule: Q01DX005 (ip), vehicle: Klucel (hydroxypropylcellulose) (HPC)): 96 % of control
- T/C (dose: 30.0 mg/kg/injection, schedule: Q01DX005 (ip), vehicle: Klucel (hydroxypropylcellulose) (HPC)): 92 % of control
- T/C (dose: 60.0 mg/kg/injection, schedule: Q01DX005 (ip), vehicle: Klucel (hydroxypropylcellulose) (HPC)): 105 % of control and 113 % of control

Compound: Cc1ccc(S(=O)(=O)OCOS(=O)(=O)c2ccc(C)cc2)cc1
- T/C [15]: 101 % of control
- T/C [6]: 120 % of control and 121 % of control
- T/C [7]: 122 % of control
- T/C [8]: 123 % of control
- T/C (dose: 400.0 mg/kg/injection, schedule: Q01DX009 (ip), vehicle: Klucel (hydroxypropylcellulose) (HPC)): 160 % of control

Compound: CC1=NC(C)(CO)CO1 (stereo not given)
- T/C [5]: 111 % of control
- T/C [9]: 111 % of control
- T/C [10]: 108 % of control
- T/C [11]: 105 % of control

Compound: CC[C@H]1CN2CCc3cc(OC)c(OC)cc3[C@@H]2C[C@@H]1C[C@H]1NCCc2cc(OC)c(OC)cc21
- T/C (dose: 1.0 mg/kg/injection, schedule: Q01DX009 (ip), vehicle: water): 112 % of control and 118 % of control
- T/C (dose: 4.0 mg/kg/injection, schedule: Q01DX009 (ip), vehicle: water): 154 % of control
- T/C (dose: 4.32 mg/kg/injection, schedule: Q04DX003 (ip), vehicle: saline): 118 % of control and 122 % of control
- T/C (dose: 5.0 mg/kg/injection, schedule: Q04DX003 (ip), vehicle: saline): 121 % of control
- T/C (dose: 5.18 mg/kg/injection, schedule: Q04DX002 (ip), vehicle: saline): 106 % of control
- T/C (dose: 5.18 mg/kg/injection, schedule: Q04DX003 (ip), vehicle: saline): 122 % of control
- T/C (dose: 7.2 mg/kg/injection, schedule: Q04DX003 (ip), vehicle: saline): 123 % of control
- T/C (dose: 8.0 mg/kg/injection, schedule: Q01DX009 (ip), vehicle: water): 166 % of control and 183 % of control
- T/C (dose: 8.64 mg/kg/injection, schedule: Q04DX003 (ip), vehicle: saline): 122 % of control
- T/C (dose: 12.0 mg/kg/injection, schedule: Q04DX003 (ip), vehicle: saline): 153 % of control
- T/C (dose: 14.4 mg/kg/injection, schedule: Q04DX002 (ip), vehicle: saline): 151 % of control and 156 % of control
- T/C (dose: 14.4 mg/kg/injection, schedule: Q04DX003 (ip), vehicle: saline): 153 % of control
- T/C (dose: 16.0 mg/kg/injection, schedule: Q01DX009 (ip), vehicle: water): 115 % of control
- T/C (dose: 20.0 mg/kg/injection, schedule: Q04DX003 (ip), vehicle: saline): 169 % of control and 174 % of control and 175 % of control
- T/C (dose: 24.0 mg/kg/injection, schedule: Q04DX002 (ip), vehicle: saline): 175 % of control and 177 % of control
- T/C (dose: 24.0 mg/kg/injection, schedule: Q04DX003 (ip), vehicle: saline): 183 % of control and 213 % of control
- T/C (dose: 33.3 mg/kg/injection, schedule: Q04DX003 (ip), vehicle: saline): 224 % of control and 94 % of control

Compound: O=C(Nc1ccc(C2=NCCN2)c(O)c1)c1ccc(C(=O)Nc2ccc(C3=NCCN3)c(O)c2)cc1
- T/C [1]: 99 % of control
- T/C [2]: 103 % of control
- T/C [3]: 107 % of control

Compound: Clc1ccc(C2SC=Cc3ccccc32)cc1 (stereo not given)
- T/C (dose: 12.5 mg/kg/injection, schedule: Q01DX009 (ip), vehicle: Klucel (hydroxypropylcellulose) (HPC)): 105 % of control and 113 % of control
- T/C [15]: 105 % of control and 115 % of control
- T/C [6]: 104 % of control and 112 % of control
- T/C [7]: 116 % of control and 122 % of control
- T/C [8]: 122 % of control and 95 % of control

Compound: Cc1ccc(-n2c(N)c(C#N)c3c(c2=S)CCC3)cc1
- T/C (dose: 50.0 mg/kg/injection, schedule: Q01DX005 (ip), vehicle: Klucel + Tween-80): 100 % of control
- T/C (dose: 100.0 mg/kg/injection, schedule: Q01DX005 (ip), vehicle: Klucel + Tween-80): 107 % of control
- T/C (dose: 200.0 mg/kg/injection, schedule: Q01DX005 (ip), vehicle: Klucel + Tween-80): 96 % of control
